We go through one compound from publication PMC3638264 (Journal of Medicinal Chemistry, 2013).

Molecules are shown by their SMILES. Bounds are passed on as bounds.

One assay deals with T1, AKR1C1 (Homo sapiens, UniProt Q04828).
T1 sequence (Q04828 1-323): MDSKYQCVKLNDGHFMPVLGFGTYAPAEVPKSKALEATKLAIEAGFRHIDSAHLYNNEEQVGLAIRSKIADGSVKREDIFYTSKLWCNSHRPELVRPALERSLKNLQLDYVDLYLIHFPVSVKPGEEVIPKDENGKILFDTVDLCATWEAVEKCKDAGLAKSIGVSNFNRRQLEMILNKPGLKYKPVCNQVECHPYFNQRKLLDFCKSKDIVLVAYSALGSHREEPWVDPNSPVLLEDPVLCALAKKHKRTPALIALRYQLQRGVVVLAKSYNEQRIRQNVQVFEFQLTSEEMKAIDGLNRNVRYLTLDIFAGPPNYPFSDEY
It is filed as biochemical. Conditions: selectivity for AKR1C3 over AKR1C1.

For a further assay, the target named is T2, AKR1C4 (Homo sapiens, UniProt P17516).
T2 sequence (P17516 1-323): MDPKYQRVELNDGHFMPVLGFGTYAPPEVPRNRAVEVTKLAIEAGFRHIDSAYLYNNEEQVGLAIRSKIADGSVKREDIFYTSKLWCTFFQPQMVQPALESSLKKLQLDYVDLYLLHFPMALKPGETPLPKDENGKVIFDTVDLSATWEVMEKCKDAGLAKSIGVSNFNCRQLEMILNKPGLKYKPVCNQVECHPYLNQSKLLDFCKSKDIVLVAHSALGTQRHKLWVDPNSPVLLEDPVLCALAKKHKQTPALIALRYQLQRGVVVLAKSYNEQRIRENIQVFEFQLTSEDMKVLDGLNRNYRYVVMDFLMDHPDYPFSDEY
It counts as biochemical. Conditions: selectivity for AKR1C3 over AKR1C4.

On to `COc1ccc2c(c1)c(CC(=O)NS(=O)(=O)C(F)(F)F)c(C)n2C(=O)c1ccc(Cl)cc1` [Compound 15], for which the “IC50 ratio AKR1C1/AKR1C3 (value in parentheses)” value on AKR1C1 is given as more than 135. In addition, on AKR1C4, the “IC50 ratio AKR1C4/AKR1C3 (value in parentheses)” value is listed as more than 135.
